This is an account of results in ChEMBL document CHEMBL5543091, “Exploring structural determinants of neuroprotection bias on novel glypromate conjugates with bioactive amines” (2024).

The subject of assay [1] is SH-SY5Y. Put plainly: Cytotoxicity against non-differentiated human SH-SY5Y cells assessed as reduction in cell viability measured after 24 hrs by MTT reduction assay relative to control. Format: functional. Further details: concentration or dose not given beside the values.
For assay [2], the system named is SH-SY5Y. Put plainly: Cytotoxicity against differentiated human SH-SY5Y cells assessed as reduction in cell viability at 100 uM measured after 48 hrs by MTT reduction assay relative to control. The format is functional.
Assay [3] concerns SH-SY5Y. Put plainly: Neuroprotective activity against Amyloid beta(25 to 35)-induced cell injury in non-differentiated human SH-SY5Y cells assessed as reduction in formation of protein aggregates at 100 uM incubated for 24 hrs by ThT fluorescence assay. The format is functional. Set-up: scale not given: the % may be the effect or the level left.
Assay [4] concerns SH-SY5Y. The assay can be described thus: Neuroprotective activity in Amyloid beta(25 to 35)-induced non-differentiated human SH-SY5Y cells assessed as fold increase in protein aggregation reduction 100 uM incubated for 24 hrs by ThT fluorescence assay. Format: functional.
Assay [5] has as its system SH-SY5Y. The assay can be described thus: Neuroprotective activity against Amyloid beta(25 to 35)-induced cell injury in non-differentiated human SH-SY5Y cells assessed as reduction in formation of protein aggregates at 100 uM incubated for 24 hrs by fluorescence microscopy based analysis. Format: functional.
The subject of assay [6] is SH-SY5Y. Put plainly: Neuroprotective activity against 6-OHDA-induced cytotoxicity in differentiated human SH-SY5Y cells at 100 uM incubated for 48 hrs followed by exposure to 6-OHDA by MTT reduction assay (reference value: 61.50+/-7.43%). The format is functional. Further details: scale not given: the % may be the effect or the level left.
Assay [7] relates to SH-SY5Y. Put plainly: Neuroprotective activity against Amyloid beta(25 to 35)-induced cell injury in non-differentiated human SH-SY5Y cells assessed as reduction in formation of protein aggregates at 100 uM incubated for 24 hrs in presence of glypromate by ThT fluorescence assay. The format is functional. Set-up: scale not given: the % may be the effect or the level left.
In assay [8] the test system is SH-SY5Y. Put plainly: Neuroprotective activity against 6-OHDA-induced cytotoxicity in differentiated human SH-SY5Y cells at 100 uM incubated for 48 hrs followed by exposure to 6-OHDA by MTT reduction assay. The format is functional, cell-based.
In assay [9] the test system is SH-SY5Y. The assay can be described thus: Neuroprotective activity against 6-OHDA-induced cytotoxicity in differentiated human SH-SY5Y cells at 100 uM incubated for 48 hrs followed by exposure to 6-OHDA in presence of glypromate by MTT reduction assay. The format is functional, cell-based.
For assay [10], the system named is SH-SY5Y. The assay can be described thus: Neuroprotective activity against 6-OHDA-induced cytotoxicity in differentiated human SH-SY5Y cells at 100 uM incubated for 48 hrs followed by exposure to 6-OHDA in presence of memantine by MTT reduction assay. The format is functional, cell-based.

Each structure is given as a SMILES string. Several values for one entry are separate records, joined by “and”; a condition that tells them apart may be missing. Equal values may be shown once. Activity calls are given as the source filed them. The rule behind the calls is not given here.

Take `COC(=O)[C@H](CCC(=O)NC12CC3CC(CC(C3)C1)C2)NC(=O)[C@@H]1CCCCN1C(=O)CN(C)C`: the Activity is on record as less than 85% in [1] and less than 25% in assay [2].

For `COC(=O)CC[C@H](NC(=O)[C@@H]1CCCN1C(=O)CNC(=O)OC(C)(C)C)C(=O)NC12CC3CC(C)(CC(C)(C3)C1)C2`, the Activity in assay [1] is less than 85%.

On to `COC(=O)[C@H](CCC(=O)NC12CC3CC(CC(C3)C1)C2)NC(=O)[C@@H]1CCCN1C(=O)CNC(=O)OC(C)(C)C`, for which, in assay [1], the Activity is on record as less than 85%.

For `COC(=O)[C@H](CCC(=O)N[C@@H]1CCc2ccccc21)NC(=O)[C@@H]1CCCN1C(=O)CNC(=O)OC(C)(C)C`, the Activity in assay [1] is reported as less than 85%.

`COC(=O)[C@H](CCC(=O)N[C@@H]1CCc2ccccc21)NC(=O)[C@@H]1CCCN1C(=O)CN(C)C`: the Activity in assay [1] was 99.51%; in assay [2], 99.49%; in assay [3], 81.51%.

As to `COC(=O)CC[C@H](NC(=O)[C@@H]1CCCCN1C(=O)CNC(=O)OC(C)(C)C)C(=O)NC12CC3CC(C)(CC(C)(C3)C1)C2`, the Activity in assay [1] was less than 85%; in assay [2], 94.5%.

With `COC(=O)[C@H](CCC(=O)N[C@@H]1CCc2ccccc21)NC(=O)[C@@H]1CCCN1C(=O)CN.O=C(O)C(F)(F)F`, the Activity stood at 94.4% in assay [1], 98.02% in [2] and 57.42% in [3]. Moreover, the “fold change (FC)” value in [4] is listed as 3.6. For the same molecule, in assay [5], the outcome was Active.

With `COC(=O)CC[C@H](NC(=O)[C@@H]1CCCCN1C(=O)CN)C(=O)NC12CC3CC(C)(CC(C)(C3)C1)C2.O=C(O)C(F)(F)F`, the Activity in assay [1] was less than 85%; in assay [2] it was less than 25%.

For the molecule `COC(=O)CC[C@H](NC(=O)[C@@H]1CCCN1C(=O)CN)C(=O)N[C@@H]1CCc2ccccc21.O=C(O)C(F)(F)F`, the Activity was found to be 87.33% in assay [1], 98.44% in assay [2], 65.5% in assay [6] and 62.25% in assay [3]. The “fold change (FC)” value in assay [4] is reported as 3.2. Besides, the result in [5] was Active.

As for `COC(=O)[C@H](CCC(=O)NC12CC3CC(C)(CC(C)(C3)C1)C2)NC(=O)[C@@H]1CCCN1C(=O)CN(C)C`, the Activity in [1] is less than 85%; in [2], 99.94%; in assay [6], 65.16%.

With `N[C@@H]1CCc2ccccc21`, the Activity in [3] stood at 38%; in assay [7], 79.68%.

Regarding `COC(=O)[C@H](CCC(=O)NC12CC3CC(CC(C3)C1)C2)NC(=O)[C@@H]1CCCCN1C(=O)CNC(=O)OC(C)(C)C`, the figures for the Activity in [1], in [2] and in [3] were 92.96%, 91.13% and 127.26%, respectively.

Turning to `COC(=O)[C@H](CCC(=O)N[C@@H]1CCc2ccccc21)NC(=O)[C@@H]1CCCCN1C(=O)CN(C)C`, in assay [1] (24 h), the Activity is 97.03% and <85%.

As to `COC(=O)[C@H](CCC(=O)NC12CC3CC(C)(CC(C)(C3)C1)C2)NC(=O)[C@@H]1CCCCN1C(=O)CN.O=C(O)C(F)(F)F`, the Activity was less than 85% in [1] and less than 25% in assay [2].

As to `COC(=O)CC[C@H](NC(=O)[C@@H]1CCCCN1C(=O)CNC(=O)OC(C)(C)C)C(=O)N[C@@H]1CCc2ccccc21`, the Activity in [1] came to 97.28%; in assay [2], 99.35%; in assay [3], 120.05%.

`CC12CC3CC(C)(C1)CC(N)(C3)C2`: the result in [8] and in assay [9] was inactive.

`COC(=O)CC[C@H](NC(=O)[C@@H]1CCCCN1C(=O)CN(C)C)C(=O)NC12CC3CC(C)(CC(C)(C3)C1)C2`: the Activity in assay [1] was less than 85%; in assay [2] it was less than 25%.

Take `COC(=O)CC[C@H](NC(=O)[C@@H]1CCCCN1C(=O)CNC(=O)OC(C)(C)C)C(=O)NC12CC3CC(CC(C3)C1)C2`: the results for the Activity in [1], in assay [2] and in assay [3] were 92.73%, 101.45% and 133.03%, respectively.

As for `NCC(=O)N1CCC[C@H]1C(=O)N[C@@H](CCC(=O)O)C(=O)O`, in [10], the result was inactive. In addition, in assay [3], the Activity was determined as 87.78%.

For the molecule `COC(=O)[C@H](CCC(=O)NC12CC3CC(CC(C3)C1)C2)NC(=O)[C@@H]1CCCN1C(=O)CN.O=C(O)C(F)(F)F`, the Activity in assay [1] is 89.04%.

In the case of `COC(=O)[C@H](CCC(=O)NC12CC3CC(C)(CC(C)(C3)C1)C2)NC(=O)[C@@H]1CCCN1C(=O)CNC(=O)OC(C)(C)C`, the Activity in [1] is on record as less than 85%.

Consider `COC(=O)CC[C@H](NC(=O)[C@@H]1CCCN1C(=O)CNC(=O)OC(C)(C)C)C(=O)NC12CC3CC(CC(C3)C1)C2`, for which the Activity in [1] is reported as 89.28%; in [3] it was 80.35%.

`COC(=O)[C@H](CCC(=O)NC12CC3CC(CC(C3)C1)C2)NC(=O)[C@@H]1CCCN1C(=O)CN(C)C`: the Activity in assay [1] is 86.22%.

Consider `COC(=O)CC[C@H](NC(=O)[C@@H]1CCCCN1C(=O)CN(C)C)C(=O)N[C@@H]1CCc2ccccc21`, for which the Activity in assay [1] (24 h) was 95.12% and <85%; in assay [2], 94.5%.

With `COC(=O)CC[C@H](NC(=O)[C@@H]1CCCCN1C(=O)CN(C)C)C(=O)NC12CC3CC(CC(C3)C1)C2`, the Activity in assay [1] was 93.57%.

As for `COC(=O)CC[C@H](NC(=O)[C@@H]1CCCN1C(=O)CNC(=O)OC(C)(C)C)C(=O)N[C@@H]1CCc2ccccc21`, the Activity in [1] is less than 85%.

On to `COC(=O)CC[C@H](NC(=O)[C@@H]1CCCCN1C(=O)CN)C(=O)N[C@@H]1CCc2ccccc21.O=C(O)C(F)(F)F`, for which the Activity in [1] amounted to 94.96%; in assay [2] it was 98.85%; in assay [3] it was 129.25%.

With `COC(=O)CC[C@H](NC(=O)[C@@H]1CCCN1C(=O)CN(C)C)C(=O)NC12CC3CC(C)(CC(C)(C3)C1)C2`, the Activity in assay [1] was less than 85%; in assay [2] it was 103.96%; in assay [6], 70.93%.

On to `COC(=O)[C@H](CCC(=O)NC12CC3CC(C)(CC(C)(C3)C1)C2)NC(=O)[C@@H]1CCCCN1C(=O)CN(C)C`, for which the Activity in [1] is listed as less than 85%; in assay [2], less than 25%.

Take `COC(=O)CC[C@H](NC(=O)[C@@H]1CCCN1C(=O)CN(C)C)C(=O)N[C@@H]1CCc2ccccc21`: the Activity is on record as 93.5% in [1], 104.91% in [2] and 69.21% in [3].

Turning to `COC(=O)[C@H](CCC(=O)N[C@@H]1CCc2ccccc21)NC(=O)[C@@H]1CCCCN1C(=O)CN.O=C(O)C(F)(F)F`, the Activity in assay [1] is recorded as 89.37%.

As for `COC(=O)[C@H](CCC(=O)NC12CC3CC(CC(C3)C1)C2)NC(=O)[C@@H]1CCCCN1C(=O)CN.O=C(O)C(F)(F)F`, the Activity in assay [1] is on record as 87.9%.

As for `COC(=O)[C@H](CCC(=O)NC12CC3CC(C)(CC(C)(C3)C1)C2)NC(=O)[C@@H]1CCCCN1C(=O)CNC(=O)OC(C)(C)C`, the Activity is listed as less than 85% in assay [1] and 91.53% in assay [2].

For `COC(=O)CC[C@H](NC(=O)[C@@H]1CCCN1C(=O)CN)C(=O)NC12CC3CC(CC(C3)C1)C2.O=C(O)C(F)(F)F`, the Activity in assay [1] was found to be 94.84%; in assay [2], 109.73%; in [6], 67.28%.

`COC(=O)[C@H](CCC(=O)N[C@@H]1CCc2ccccc21)NC(=O)[C@@H]1CCCCN1C(=O)CNC(=O)OC(C)(C)C`: the results for the Activity in [1] and in assay [3] were 96.69% and 120.77%, respectively.

Turning to `COC(=O)CC[C@H](NC(=O)[C@@H]1CCCN1C(=O)CN)C(=O)NC12CC3CC(C)(CC(C)(C3)C1)C2.O=C(O)C(F)(F)F`, the figures for the Activity in assay [1] and in [2] were less than 85% and 97.3%, respectively.

Regarding `COC(=O)[C@H](CCC(=O)NC12CC3CC(C)(CC(C)(C3)C1)C2)NC(=O)[C@@H]1CCCN1C(=O)CN.O=C(O)C(F)(F)F`, the Activity in assay [1] is less than 85%.

Regarding `COC(=O)CC[C@H](NC(=O)[C@@H]1CCCCN1C(=O)CN)C(=O)NC12CC3CC(CC(C3)C1)C2.O=C(O)C(F)(F)F`, the results for the Activity in [1], in assay [2] and in assay [3] were 92.68%, 97.33% and 132.48%, respectively.

As to `COC(=O)CC[C@H](NC(=O)[C@@H]1CCCN1C(=O)CN(C)C)C(=O)NC12CC3CC(CC(C3)C1)C2`, the Activity in assay [1] is on record as 91.14%; in assay [2], 107.67%; in assay [6], 68.03%; in [3], 79.52%.
